Results as given in patent US7541353B2, “Compounds for the treatment of hepatitis C” (Bristol-Myers Squibb Company, priority 2007, dated 2009).
Read-outs that look alike come from different tables or passages of the source.

Tests used:
HCV NS5B = biological target: T1, HCV NS5B (Hepatitis C virus genotype 1b, UniProt Q9WMX2); experiment: Modified HCV NS5B RdRp enzyme assay (preincubation protocol); format: biochemical
T1 construct: The cDNA encoding the NS5B protein of HCV, genotype 1b; made in house; host or cells: E. coli BL21(DE3)
T1 sequence (Q9WMX2 2420-2992): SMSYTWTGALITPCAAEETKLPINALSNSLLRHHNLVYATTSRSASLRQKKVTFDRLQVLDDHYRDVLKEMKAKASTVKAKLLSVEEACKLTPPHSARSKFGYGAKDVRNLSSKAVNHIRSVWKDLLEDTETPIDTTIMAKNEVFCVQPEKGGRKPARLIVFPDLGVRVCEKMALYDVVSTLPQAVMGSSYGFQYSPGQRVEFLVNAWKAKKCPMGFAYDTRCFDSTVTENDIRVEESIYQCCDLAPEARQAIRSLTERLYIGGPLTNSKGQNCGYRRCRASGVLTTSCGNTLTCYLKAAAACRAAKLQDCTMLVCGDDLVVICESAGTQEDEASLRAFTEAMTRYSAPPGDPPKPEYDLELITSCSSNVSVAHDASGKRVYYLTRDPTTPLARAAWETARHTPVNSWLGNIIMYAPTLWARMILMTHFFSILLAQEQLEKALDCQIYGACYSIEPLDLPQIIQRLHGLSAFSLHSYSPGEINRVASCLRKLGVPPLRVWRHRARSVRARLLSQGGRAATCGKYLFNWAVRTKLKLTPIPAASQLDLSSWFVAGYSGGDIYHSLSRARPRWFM
Protocol: HCV NS5B RdRp cloning, expression, and purification. The cDNA encoding the NS5B protein of HCV, genotype 1b, was cloned into the pET21a expression vector. The protein was expressed with an 18 amino acid C-terminal truncation to enhance the solubility. The E. coli competent cell line BL21(DE3) was used for expression of the protein. Cultures were grown at 37° C. for ˜4 hours until the cultures reached an optical density of 2.0 at 600 nm. The cultures were cooled to 20° C. and induced with 1 mM IPTG. Fresh ampicillin was added to a final concentration of 50 μg/ml and the cells were grown overnight at 20° C.
Cell pellets (3L) were lysed for purification to yield 15-24 mgs of purified NS5B. The lysis buffer consisted of 20 mM Tris-HCl, pH 7.4, 500 mM NaCl, 0.5% triton X-100, 1 mM DTT, 1 mM EDTA, 20% glycerol, 0.5 mg/ml lysozyme, 10 mM MgCl2, 15 ug/ml deoxyribonuclease I, and Complete™ protease inhibitor tablets (Roche). After addition of the lysis buffer, frozen cell pellets were resuspended using a tissue homogenizer. To reduce the viscosity of the sample, aliquots of the lysate were sonicated on ice using a microtip attached to a Branson sonicator. The sonicated lysate was centrifuged at 100,000×g for 1 hr at 4° C. and filtered through a 0.2 μm filter unit (Corning).
The protein was purified using two sequential chromatography steps: Heparin sepharose CL-6B and polyU sepharose 4B (Pharmacia). The chromatography buffers were identical to the lysis buffer but contained no lysozyme, deoxyribonuclease I, MgCl2 or protease inhibitor and the NaCl concentration of the buffer was adjusted according to the requirements for charging the protein onto the column. Each column was eluted with a NaCl gradient which varied in length from 5-50 column volumes depending on the column type. After the final chromatography step, the resulting purity of the enzyme is >90% based on SDS-PAGE analysis. The enzyme was aliquoted and stored at −80° C.
Standard HCV NS5B RdRp enzyme assay. HCV RdRp genotype 1b assays were run in a final volume of 60 μl in 96 well plates (Corning 3600). The assay buffer is composed of 20 mM Hepes, pH 7.5, 2.5 mM KCl, 2.5 mM MgCl2, 1 mM DTT, 1.6 U RNAse inhibitor (Promega N2515), 0.01 mg/ml BSA (Sigma B6917), and 2% glycerol. All compounds were serially diluted (3-fold) in DMSO and diluted further in water such that the final concentration of DMSO in the assay was 2%. HCV RdRp genotype 1b enzyme was used at a final concentration of 28 nM. A polyA template was used at 6 nM, and a biotinylated oligo-dT12 primer was used at 180 nM final concentration. Template was obtained commercially (Amersham 27-4110). Biotinylated primer was prepared by Sigma Genosys. 3H-UTP was used at 0.6 μCi (0.29 μM total UTP). Reactions were initiated by the addition of enzyme, incubated at 30° C. for 60 min, and stopped by adding 25 μl of 50 mM EDTA containing SPA beads (4 μg/μl, Amersham RPNQ 0007). Plates were read on a Packard Top Count NXT after >1 hr incubation at room temperature.
Modified HCV NS5B RdRp enzyme assay. A modified enzyme assay was performed essentially as described for the standard enzyme assay except for the following: The biotinylated oligo dT12 primer was precaptured on streptavidin-coated SPA beads by mixing primer and beads in assay buffer and incubating at room temperature for one hour. Unbound primer was removed after centrifugation. The primer-bound beads were resuspended in 20 mM Hepes buffer, pH 7.5 and used in the assay at final concentrations of 20 nM primer and 0.67 μg/μl beads. Order of addition in the assay: enzyme (1.75 nM) was added to diluted compound followed by the addition of a mixture of template (0.36 nM), 3H-UTP (0.6 μCi, 0.29 μM), and primer-bound beads, to initiate the reaction; concentrations given are final. Reactions were allowed to proceed for 4 hours at 30° C.
IC50 values for compounds were determined using seven different [I]. […]

HCV replicon cells = experiment: HCV replicon FRET assay; format: cell-based
Protocol: FRET Assay Preparation. The HCV FRET screening assay was performed in 96-well cell culture plates. The FRET peptide (Anaspec, Inc.) (Taliani et al., Anal. Biochem. 1996, 240, 60-67) contains a fluorescence donor, EDANS, near one end of the peptide and an acceptor, DABCYL, near the other end. The fluorescence of the peptide is quenched by […] resonance energy transfer (RET) between the donor and the acceptor, but as the NS3 protease cleaves the peptide the products are released from RET quenching and the fluorescence of the donor becomes apparent. The assay reagent was made as follows: 5× cell Luciferase cell culture lysis reagent from Promega (#E153A) diluted to 1× with dH2O, NaCl added to 150 mM final, the FRET peptide diluted to 20 μM final from a 2 mM stock.
To prepare plates, HCV replicon cells, with or without a Renilla luciferase reporter gene, were trypsinized and plated in a 96-well plate with titrated test compounds added in columns 3 through 12; columns 1 and 2 contained a control compound (HCV control inhibitor), and the bottom row contained cells with DMSO only. The plates were then placed in a CO2 incubator at 37° C.
Assays. Subsequent to addition of the test compounds described above (FRET Assay Preparation), at various times the plate was removed and Alamar blue solution (Trek Diagnostics, #00-100) was added to measure cellular toxicity. After reading in a Cytoflour 4000 instrument (PE Biosystems), plates were rinsed with PBS and then used for FRET assay by the addition of 30 ul of the FRET peptide assay reagent described above (FRET Assay Preparation) per well. The plate was then placed into the Cytoflour 4000 instrument which had been set to 340 excite/490 emission, automatic mode for up to 20 cycles and the plate read in a kinetic mode. Typically, the signal to noise using an endpoint analysis after the reads was at least three-fold. Alternatively, after Alamar blue reading, plates were rinsed with PBS, then used for luciferase assay using the Promega Dual-Glo Luciferase Assay System or the Promega EnduRen Live Cell Substrate assay.
Compound analysis was performed by quantification of the relative HCV replicon inhibition and the relative cytotoxicity values. To calculate cytoxicity values, the average Alamar Blue fluorescence signals from the control wells were set as 100% non-toxic. The individual signals in each of the compound test wells were then divided by the average control signal and multiplied by 100% to determine […]. To calculate the HCV replicon inhibition values, an average background value was obtained from the two wells containing the highest amount of HCV control inhibitor at the end of the assay period. These numbers were similar to those obtained from naïve Huh-7 cells. The background numbers were then subtracted from the average signal obtained from the control wells and this number was used as 100% activity. The individual signals in each of the compound test wells were then divided by the averaged control values after background subtraction and multiplied by 100% to determine percent activity. EC50 values were calculated as the concentration which caused a 50% reduction in FRET or luciferase activity. The two numbers generated for the compound plate, percent cytoxicity and percent activity, were used to determine compounds of interest for further analysis.

Structure (SMILES) | IC50 (HCV NS5B) [nM] | EC50 (HCV replicon cells; Hepatitis C virus) [nM] | further results
COc1ccc2c(c1)C1CC1(C(=O)N1C3CCC[C@@H]1COC3)Cn1c-2c(C2CCCCC2)c2ccc(C(=O)NS(=O)(=O)C3CCCC3)cc21 (stereo partly shown) | 4.58 to 500 | 4.58 to 500 | –
COc1ccc2c(c1)C1CC1(C(=O)N1C3COCC1COC3)Cn1c-2c(C2CCCCC2)c2ccc(C(=O)NS(=O)(=O)C(C)C)cc21 (stereo not shown) | 4.58 to 500 | 4.58 to 500 | –
COc1ccc2c(c1)[C@@H]1C[C@]1(C(=O)N1C3COCC1COC3)Cn1c-2c(C2CCCCC2)c2ccc(C(=O)NS(=O)(=O)N(C)C)cc21 | 4.58 to 500 | 4.58 to 500 | –
COc1ccc2c(c1)C1CC1(C(=O)N1C3CCCC1COC3)Cn1c-2c(C2CCCCC2)c2ccc(C(=O)NS(=O)(=O)C3CCC3)cc21 (stereo not shown) | 4.58 to 500 | 4.58 to 500 | –
CNC1CC2CCC(C1)N2C(=O)C12CC1c1cc(OC)ccc1-c1c(C3CCCCC3)c3ccc(C(=O)NS(=O)(=O)N(C)C)cc3n1C2 (stereo not shown) [drawing 28] | 4.58 to 500 | 4.58 to 500 | –
COc1ccc2c(c1)C1CC1(C(=O)N1C3CCC1CC3)Cn1c-2c(C2CCCCC2)c2ccc(C(=O)NS(=O)(=O)N3CCN(C)CC3)cc21 (stereo not shown) | 4.58 to 500 | 4.58 to 500 | –
CCC(C)S(=O)(=O)NC(=O)c1ccc2c(C3CCCCC3)c3n(c2c1)CC1(C(=O)N2C4CCC[C@@H]2COC4)CC1c1cc(OC)ccc1-3 (stereo partly shown) | 4.58 to 500 | 4.58 to 500 | –
COc1ccc2c(c1)C1CC1(C(=O)N1C3CCC1CC(O)(C(F)(F)F)C3)Cn1c-2c(C2CCCCC2)c2ccc(C(=O)NS(=O)(=O)N(C)C)cc21 (stereo not shown) | 4.58 to 500 | 4.58 to 500 | –
COc1ccc2c(c1)C1CC1(C(=O)N1C3CCC1CC(N(C)Cc1ccccc1)C3)Cn1c-2c(C2CCCCC2)c2ccc(C(=O)NS(=O)(=O)N3CCC3)cc21 (stereo not shown) | 4.58 to 500 | 4.58 to 500 | –
COc1ccc2c(c1)C1CC1(C(=O)N1C3CCC1CC(N1CCCCC1)C3)Cn1c-2c(C2CCCCC2)c2ccc(C(=O)NS(=O)(=O)N(C)C)cc21 (stereo not shown) | 4.58 to 500 | 4.58 to 500 | –
COc1ccc2c(c1)C1CC1(C(=O)C1C3CCC1CC3)Cn1c-2c(C2CCCCC2)c2ccc(C(=O)NS(=O)(=O)N(C)C)cc21 (stereo not shown) | – | – | IC50 (HCV NS5B; preincubation protocol, read-out: IC50): 4.58 to 500 nM; EC50 (HCV replicon cells; Hepatitis C virus, FRET assay, read-out: EC50): 4.58 to 500 nM
COc1ccc2c(c1)C1CC1(C(=O)N1C3CCC1CC(N(C)Cc1ccccc1)C3)Cn1c-2c(C2CCCCC2)c2ccc(C(=O)NS(=O)(=O)C(C)C)cc21 (stereo not shown) [drawing 55] | – | – | IC50 (HCV NS5B; preincubation protocol): 4.58 to 500 nM; EC50 (HCV replicon cells; FRET assay): 4.58 to 500 nM
COc1ccc2c(c1)C1CC1(C(=O)N1C3CCC1CC(NCCN(C)C)C3)Cn1c-2c(C2CCCCC2)c2ccc(C(=O)NS(=O)(=O)N(C)C)cc21 (stereo not shown) | 4.58 to 500 | 4.58 to 500 | –
COc1ccc2c(c1)C1CC1(C(=O)N1C3CCC[C@@H]1COC3)Cn1c-2c(C2CCCCC2)c2ccc(C(=O)NS(=O)(=O)CC(C)C)cc21 (stereo partly shown) | 4.58 to 500 | 4.58 to 500 | –
